BindingDB's records for PubMed 35063895 (Tokyo Medical and Dental University, 2022)
Values joined by “and” are separate entries in the source; they are usually repeats but may differ in a detail not shown here. Equal values may be shown once.

assay: CD4 mimetic activity at gp120 in HIV-1 KP-5mvcR infected in human TZM-bl cells assessed as inhibition of viral entry by measuring reduction in RLU by single round assay

| SMILES | IC50 |
| --- | --- |
| CC1(C)CC(NC(=O)C(=O)Nc2ccc(F)nc2)CC(C)(C)N1 | 5.1 µM |
| N=C(N)NCCCCC(=O)NCCN1CCC(NC(=O)C(=O)Nc2ccc(Cl)cc2)CC12CCCCC2 (stereo not drawn) | 0.29 µM and 1.5 µM |
| N=C(N)NCCCCC(=O)NCCN1CCC(NC(=O)C(=O)Nc2ccc(Cl)cn2)CC1 | > 100 µM |
| CC1(C)CC(NC(=O)C(=O)Nc2ccc(Cl)cc2)CC(C)(C)N1 [N-(4-chlorophenyl)-N'-(2,2,6,6-tetramethylpiperidin-4-yl)-oxalamide] | 0.27 µM |
| N=C(N)NCCCCC(=O)NCCN1CCC(NC(=O)CNc2ccc(Cl)cn2)CC1 | > 100 µM |

Now from value to compound:

| IC50 | SMILES |
| --- | --- |
| > 100 µM | N=C(N)NCCCCC(=O)NCCN1CCC(NC(=O)C(=O)Nc2cncc(F)c2)CC12CCCCC2 (stereo not drawn) |
| 6.7 µM | COCCOCCOCCOCCOCCOCCOCCOCCOCCOCCOCCOCCNC(=O)CCC(=O)N[C@@H](CCCNC(=N)N)C(=O)NCCN1CCC(NC(=O)C(=O)Nc2ccc(Cl)cc2)CC12CCCCC2 (stereo partly drawn) |
| > 100 µM | COCCOCCOCCOCCOCCOCCOCCOCCOCCOCCOCCOCCNC(=O)CCC(=O)N[C@@H](CCCNC(=N)N)C(=O)NCCN1CCC(NC(=O)C(=O)Nc2ccc(F)nc2)CC12CCCCC2 (stereo partly drawn) |
